Values joined by “and” are separate entries in the source; they are usually repeats but may differ in a detail not shown here. Equal values may be shown once.
Tests used:
EAE (RAT) [1] = experiment: Ability of peptide mixed in CFA to cause EAE; type: in vivo; details: rats with EAE / rats immunized with the peptide alone in CFA
Method: (§1) The peptides were tested for their ability to cause EAE when mixed in CFA. […] It was seen that Ala4, Ala6, Ala7, and Ala8 are poor binders to I-E, implying that these residues 4F,6N,7I, and 8V are critical in MHC binding. […] Despite their inability to bind well to I-E, peptides ala6 and ala8 block the development of EAE when mixed with native peptide in a 5:1 molar ratio with CFA (0/6 sick with native plus ala6, 2/6 with native plus ala8, compared to 11/12 with native peptide alone). These competitor peptides Ala6 and Ala8, though poor I-E binders can apparently compete with native peptide and antagonize the T-cell receptor.

I-E = experiment: MHC I-E binding of substituted MBP 87-99 peptides; parameters: species or system rat; details: for IC50: read-out: (M*C) IC50 I-E Binding
Text: A set of substituted peptides based on the sequence VHFFKNIVTPRT (Seq. ID No. 39), which is identical in rats, mice and human myelin basic protein (MBP), and corresponds to the I-E restricted epitope MBP 87-99 in the rat was produced. The peptides are shown in Table 1 (Seq. ID Nos. 39 to 52 respectively) MHC binding was measure say described in Smilek et al, 1991, Gautam et al 1992a&b.

CTL = CTL assay with substituted peptides; type: cell-based
MS patients = details: cited from earlier work
87-99 T-cell line [2] = experiment: Competition assay for T-cell proliferation with native peptide; type: cell-based, Lewis rat; details: blocking of proliferation of 87-99 T-cell line when given with native peptide in vitro
Method: The second assay is a competition assay for T-cell proliferation. In this assay, antigen presenting spleen cells are first irradiated and then incubated with native MBP peptide for 2-4 hours. These cells are then washed and further cultured with T-cells reactive to MBP. Various concentrations of candidate peptide analogues are included in cultures for an additional 3 days. Following this incubation period, each culture is pulsed with 1 μCi of [^3H]-thymidine for an additional 12-18 hours. Cultures are then harvested on fiberglass filters and counted as above. Mean CPM and standard error of the mean are calculated from data determined in triplicate cultures. Peptide analogues which inhibit proliferation to approximately 25% at a concentration of 50 μM or greater are suitable for further screening.
(§2) Proliferation Assay: Proliferative responses were determined as described previously (Zamvil, et al., Nature 317:355, 1985). 1×10^4 T-cells were cultured with 5×10^5 X-irradiated (3,000 rad) PL/J splenic APC in 0.2 ml of culture media in 96 well flat-bottomed microtiter plates (Falcon, 3072). Peptides were added to culture giving the final concentrations indicated. At 48 hours incubation, each well was pulsed with 1 μCi ^3H-thymidine and harvested 16 hours later. The mean c.p.m. thymidine incorporation was calculated for triplicate cultures. Standard deviations from replicate cultures were within 10% mean value. Proliferation assays were performed in 96-well microtiter plates. Briefly, 2×10^4 T-cells and 10^6 irradiated thymocytes/well were incubated with stimulation medium only, Con A, or antigen. The cultures were harvested onto glass fiber filters and TdR uptake was assessed by liquid scintillation. Mean cpm were calculated from triplicate wells. In some experiments, competitor peptides, or anti I-A (OX-6) or anti-I-E antibodies (OX-17) were used to evaluate which MHC molecules were used to restrict the T-cell response, or to determine whether peptides could antagonize stimulation by the native peptide.
as §1

87-99 T-cell line [3] = experiment: Proliferation of encephalitogenic T-cell line raised against native peptide (87-99); type: cell-based, rat; details: stimulation of T-cell line raised against native 87-99; grades negative to 4+, key not given
Method: As noted above, candidate peptide analogues are first tested for their property of causing or inhibiting proliferation of T-cell lines. In the proliferation assay, MBP reactive T-cell lines may be used as target cells. T-cell lines are established from lymph nodes taken from rats injected with MBP. Lymph node cells are isolated and cultured for 5 to 8 days with MBP and IL-2 as a source of T-cell growth factors. Viable cells are recovered and a second round of stimulation is performed with MBP and irradiated splenocytes as a source of growth factors. After 5 to 6 passages in this manner, the proliferative potential of the cell lines are determined. MBP-reactive lines are used in the proliferation assay. In this assay, T-cell lines are cultured for three days with various concentrations of peptide analogues and irradiated, autologous splenocytes. After three days, 0.5-1.0 μCi of [^3H]-thymidine is added for 12-16 hours. Cultures are harvested and incorporated counts determined. Mean CPM and standard error of the mean are calculated from triplicate cultures.
Development of MBP-specific T-cell lines in the rat: T-cell lines are selected from LN or SC (spinal cords) of rats immunized with guinea pig myelin basic protein or with MBP peptide (200 μg) in CFA. Supernatants from ConA-stimulated Lewis rat splenocytes are used as the source of IL-2 to expand Ag-stimulated T-cells.
as §2

EAE (RAT) [4] = experiment: Prevention of EAE, competitor mixed with native peptide 5:1 in CFA; type: in vivo; details: sick/total; competitor plus native peptide 5:1 molar ratio in CFA; native line = native peptide alone
Method: as §1

EAE = experiment: Competition with Ala6 and Ala5 for prevention of EAE with MBP (Table 3); type: in vivo, mice; details: peptide alone 0.2 mg in CFA; number with clinical EAE/number immunized; listed as Native MBP Peptide
Method: Incidence of EAE was expressed as number of mice with clinical EAE/number of mice immunized. For the induction of EAE, MBP peptide was dissolved in phosphate buffered saline (PBS) and emulsified with complete Freund's adjuvant (CFA) in a 1:1 mixture of PBS and CFA. Mice were injected with 0.2 ml emulsion at the base of the tail. On the same day and 48 h later, pertussis toxin (List Chemicals, Campbell, Calif.) was injected intravenously. Mice were examined daily for signs of EAE. For prevention of EAE, animals were immunized with MBP (0.2 mg), or in a mixture with the competitor peptide (1 mg).

| binding to I-E / MHC (in words) (I-E) | IC50 (I-E) [µM] | Molecule | EAE (RAT) (EAE (RAT) [1]) | CTL (CTL) | specific response to MBP (MS patients; in vivo) | EAE (RAT) (EAE (RAT) [1]; listed as Ala8) | Comp Assay Prolif (RAT) (87-99 T-cell line [2]) | Comp Assay Prolif (RAT) (87-99 T-cell line [2]; listed as Ala8) | Prolif. (87-99 T-cell line [3]) | EAE (RAT) (EAE (RAT) [4]) | Incidence of EAE (EAE) | patients with clinical exacerbation (MS patients; within one month after initiation of treatment) |
| --- | --- | --- | --- | --- | --- | --- | --- | --- | --- | --- | --- | --- |
| poor binders | > 200 | CC[C@H](C)[C@H](NC(=O)[C@H](CC(N)=O)NC(=O)[C@H](CCCCN)NC(=O)[C@H](Cc1ccccc1)NC(=O)[C@H](Cc1ccccc1)NC(=O)[C@H](Cc1c[nH]cn1)NC(=O)[C@@H](N)C(C)C)C(=O)N[C@@H](C)C(=O)N[C@H](C(=O)N1CCC[C@H]1C(=O)N[C@@H](CCCNC(=N)N)C(=O)N[C@H](C(=O)N1CCC[C@H]1C(=O)O)[C@@H](C)O)[C@@H](C)O [Ala 8] | 1/15 | plus |  | incapable of causing EAE | plus | can block proliferation | weakly stimulate | 2/6 |  |  |
|  | 14 | CC[C@H](C)[C@H](NC(=O)[C@H](CC(N)=O)NC(=O)[C@H](CCCCN)NC(=O)[C@H](Cc1ccccc1)NC(=O)[C@H](Cc1ccccc1)NC(=O)[C@H](Cc1c[nH]cn1)NC(=O)[C@@H](N)C(C)C)C(=O)N[C@H](C(=O)N[C@H](C(=O)N1CCC[C@H]1C(=O)N[C@@H](CCCNC(=N)N)C(=O)N[C@H](C(=O)N1CCC[C@H]1C(=O)O)[C@@H](C)O)[C@@H](C)O)C(C)C [native, reference compound] | 21/21 | nega- |  |  | MINUS |  |  | 11/12 | 11/12 and 6/6 |  |

More lines, now with the values behind:

| Molecule | binding to I-E / MHC (in words) (I-E) | IC50 (I-E) [µM] | EAE (RAT) (EAE (RAT) [1]) | CTL (CTL) | specific response to MBP (MS patients; in vivo) | EAE (RAT) (EAE (RAT) [1]; listed as Ala8) | Comp Assay Prolif (RAT) (87-99 T-cell line [2]) | Comp Assay Prolif (RAT) (87-99 T-cell line [2]; listed as Ala8) | Prolif. (87-99 T-cell line [3]) | EAE (RAT) (EAE (RAT) [4]) | Incidence of EAE (EAE) | patients with clinical exacerbation (MS patients; within one month after initiation of treatment) |
| --- | --- | --- | --- | --- | --- | --- | --- | --- | --- | --- | --- | --- |
| CC(C)[C@H](N)C(=O)N[C@@H](Cc1c[nH]cn1)C(=O)N[C@@H](Cc1ccccc1)C(=O)N[C@@H](Cc1ccccc1)C(=O)N[C@@H](CCCCN)C(=O)N[C@@H](CC(N)=O)C(=O)N[C@@H](C)C(=O)N[C@H](C(=O)N[C@H](C(=O)N1CCC[C@H]1C(=O)N[C@@H](CCCNC(=N)N)C(=O)N[C@H](C(=O)N1CCC[C@H]1C(=O)O)[C@@H](C)O)[C@@H](C)O)C(C)C [Ala 7] | poor binders | > 200 | 6/6 | plus |  |  |  |  |  |  |  |  |
| IFN-γ: cytokine administered in a pilot study to alleviate symptoms of MS |  |  |  |  | increase |  |  |  |  |  |  |  |
| IFN-γ: cytokine administered in a pilot study to alleviate symptoms of MS (protein, UniProt P01579 24-161, looked up) Interferon gamma: QDPYVKEAENLKKYFNAGHSDVADNGTLFLGILKNWKEESDRKIMQSQIVSFYFKLFKNFKDDQSIQKSVETIKEDMNVKFFNSNKKKRDDFEKLTNYSVTDLNVQRKAIHELIQVMAELSPAAKTGKRKRSQMLFRG |  |  |  |  |  |  |  |  |  |  |  | 7 of 18 |

Reference: patent US20020076412A1, “METHODS FOR MODULATING THE IMMUNE SYSTEM” (priority 1987, published 2002)
